Experiments:
Assay type in all cases: in vivo
[1] = test system: Green Peach Aphid (Myzus persicae, MYZUPE); assay: Bioassay 1: Green Peach Aphid, foliar spray on infested cabbage seedlings, live aphids counted three days after treatment
Description: Bioassay 1: Green Peach Aphid (Myzus persicae, MYZUPE) (“GPA”).
The stock solutions were prepared with Formula One as well as for each of the active ingredients individually. Test solutions were prepared from the stock solutions. Test solutions were prepared containing Formula One, the individual active ingredients, and mixtures of Formula One with each of the active ingredients. The test solutions for Formula One and the individual active ingredients were prepared by adding 750 microliters (μL) of stock solution to a 25 mL glass vial, then adding 750 μL of 1:1 acetone: methanol solvent, followed by the addition of 13.5 ml water with 0.025% Tween®) 20 to create a 0.0005% (weight/volume (w/v)) solution. The test solutions containing mixtures of Formula One and the individual active ingredients were prepared by adding 750 μL of the active ingredient stock solution to a 25 mL glass vial, followed by 750 μL of the Formula One stock solution, then by the addition of 13.5 mL water with 0.025% Tween®) 20 to create a test solution containing 0.0005% (w/v) Formula One and 0.0005% (w/v) of the active ingredient. Each test solution was serially diluted to create desired doses of test solutions (0.0005% (w/v), 0.000125% (w/v), 0.00003125% (w/v), 0.0000078% (w/v), 0.00000195% (w/v), and 0.0000005% (w/v)).
The test solutions were tested against GPA using the following procedure: Cabbage seedlings, grown in 3-inch pots with 2-3 small (3-5 centimeter (cm)) true leaves, were used as test substrate. The seedlings were infested with 20-50 GPA (wingless adult and nymph stages) one day prior to chemical application. Four pots with individual seedlings were used for each treatment. A hand-held aspirator-type sprayer was used for spraying a solution to both sides of […] leaves until runoff. Reference plants (solvent check) were sprayed with the diluent only (0.025% Tween®) 20 and 10% acetone:methanol (1:1) in water). Treated plants were held in a holding room for three days at approximately 25° C. and ambient relative humidity (RH about 20% to about 45%) prior to grading. Evaluation was conducted by counting the number of live aphids per plant under a microscope three days after treatment. Percent control was measured using Abbott's correction formula (W. S. Abbott, J. Econ. Entomol. 18 (1925), pp. 265-267) as follows:
where X=No. of live aphids on solvent check plants and Y=No. of live aphids on treated plants. In Table B1 the “Expected % Control” was calculated using the method described in Colby S. R., Weeds, 1967, 15, 20-22. Bioassay 2: Sweet Potato Whitefly (Bemisia tabaci, BEMITA) (“SPW”).

[2] = test system: Western Flower Thrips (Frankliniella occidentalis, FRANOC); assay: Bioassay 3: Western Flower Thrips, cotton leaf disc dip, live WFT counted 3 days after treatment; details: Frankliniella occidentalis, foliar, 72 h; for pest or weed control at 0.005 % strength: AI alone 0.005 % w/v
Description: Stock solutions of Formula One and various active ingredients were prepared initially at a concentration of 8 mg/ml for Formula One and 1 mg/mL for the active ingredients, respectively, using acetone as a diluent. Stock solutions were prepared with Formula One as well as for each of the active ingredients individually. Test solutions were prepared from the stock solutions. Test solutions were prepared containing Formula One, the individual active ingredients, and mixtures of Formula One with each of the active ingredients. The test solution for Formula One was prepared by adding 500 μL of the stock solution to a 25 mL glass vial, then adding 500 μL of acetone, followed by the addition of 9 mL water with 0.025% Tween®) 20 to create a 0.04% (w/v) solution. The test solutions of the individual active ingredients were prepared by adding 500 μL of stock solution to a 25 mL glass vial, then adding 500 μL of acetone, followed by the addition of 9 mL water with 0.025% Tween®) 20 to create a 0.005% (w/v) solution. The test solutions containing mixtures of Formula One and the individual active ingredients were prepared by adding 500 μL of the active ingredient stock solution to a 25 mL glass vial, followed by 500 μL of the Formula One stock solution, then by the addition of 9 mL water with 0.025% Tween®) 20 to create a test solution containing 0.04% (w/v) Formula One and 0.005% (w/v) of the active ingredient. Each test solution was serially diluted to create desired doses of test solutions (0.005% (w/v), 0.00125% (w/v), 0.0003125% (w/v), 0.000078% (w/v), and 0.0000195% (w/v)). In test solutions containing mixtures of Formula One and the active ingredients, the active ingredients were diluted as described above, but the Concentration of Formula One was held constant (0.04% (w/v)).
The test solutions were tested against WFT using the following procedure: Leaf discs (2.7 cm in diameter) were cut from the true leaves of cotton plants. Leaf discs were dipped into the test solutions and shaken to ensure complete coverage of the leaf disc and then placed in Millipore®) PetriSlides containing a filter paper disc. Treated leaf discs were air dried for approximately 1 hour. Each leaf disc was infested with 5 WFT (9-10-day old nymphs) by placement on each leaf disc, and the PetriSlides were capped to prevent escape. Each treatment was replicated three times and the test treatments were held at approximately 26° C. and ambient relative humidity (RH) prior to grading. Reference discs (solvent check) were treated with the diluent only. Evaluation was conducted by counting the number of live WFT under magnification 3 days after treatment. Percent control was measured using Abbott's correction formula (W. S. Abbott, J. Econ. Entomol. 18 (1925), pp. 265-267) as follows:
where X=No. of live nymphs on solvent check leaf discs and Y=No. of live nymphs on treated leaf discs. In Table B3 the “Expected % Control” was calculated using the method described in Colby S. R., Weeds, 1967, 15, 20-22. Bioassay 4: Western Tarnished Plant Bug (Lygus hesperus, LYGUHE) (“WTPB”).

[3] = test system: Sweet Potato Whitefly (Bemisia tabaci, BEMITA); assay: Bioassay 2: Sweet Potato Whitefly, spray on cotton seedlings at crawler emergence, nymphs counted 7-9 days after treatment; details: AI alone 0.1 (10-5) % w/v
Description: Stock solutions were prepared with Formula One as well as for each of the active ingredients individually. Test solutions were prepared from the stock solutions. Test solutions were prepared containing Formula One, the individual active ingredients, and mixtures of Formula One with each of the active ingredients. The test solutions for Formula One and the individual active ingredients were prepared by adding 500 μL of stock solution to a 25 mL glass vial, then adding 500 μL of acetone, followed by the addition of 9 mL water with 0.025% Tween®) 20 to create a 0.001% (w/v) solution. The test solutions containing mixtures of Formula One and the individual active ingredients were prepared by adding 500 μL of the active ingredient stock solution to a 25 mL glass vial, followed by 500 μL of the Formula One stock solution, then by the addition of 9 mL water with 0.025% Tween®) 20 to create a test solution containing 0.001% (w/v) Formula One and 0.001% (w/v) of the active ingredient. Each test solution was serially diluted to create desired doses of test solutions (0.001% (w/v), 0.0001% (w/v), 0.00001% (w/v), 0.000001% (w/v), 0.0000001% (w/v), and 0.00000001% (w/v)).
The test solutions were tested against SPW using the following procedure: Cotton seedlings grown in 3-inch pots, pruned so that only one true leaf remained, were used as test substrate. Adult B. tabaci were allowed to colonize the cotton plants and lay eggs for 24 hours after which all adults were removed from the plants using compressed air. Plants were monitored for egg development and, when crawler emergence was underway (>25% emergence based on visual examination using a microscope), the plants were sprayed using the test solutions and methods described above for green peach aphids (GPA). Treated plants were held in a holding room at approximately 25° C. and ambient relative humidity (RH) prior to grading. Evaluation was conducted by counting the number of developed 2-3 instar nymphs per plant under a microscope 7-9 days after treatment. Percent control was measured using Abbott's correction formula (W. S. Abbott, J. Econ. Entomol. 18 (1925), pp. 265-267) as follows:
where X=No. of live nymphs on solvent check plants and Y=No. of live nymphs on treated plants. In Table B2 the “Expected % Control” was calculated using the method described in Colby S. R., Weeds, 1967, 15, 20-22. Bioassay 3: Western Flower Thrips (Frankliniella occidentalis, FRANOC) (“WFT”).

[4] = test system: Neotropical Brown Stink Bug (Euschistus heros, EUSCHE); assay: whole plant or invertebrate; details: Euschistus heros, 72 h, read-out: Average % Control AI
Description: X=No. of live nymphs on solvent check and Y=No. of live nymphs on treated bean segments. In Table B4 the “Expected % Control” was calculated using the method described in Colby S. R., Weeds, 1967, 15, 20-22. Bioassay 5: Neotropical Brown Stink Bug (Euschistus heros, EUSCHE) (“BSB”).
Stock solutions were prepared with Formula One as well as for each of the active ingredients individually. Test solutions were prepared from the stock solutions. Test solutions were prepared containing Formula One, the individual active ingredients, and mixtures of Formula One with each of the active ingredients. The test solution for Formula One was prepared by adding 500 μL of the stock solution to a 25 mL glass vial, then adding 500 μL of acetone, followed by the addition of 9 mL water with 0.025% Tween®) 20 to create a 0.04% (w/v) solution. The individual active ingredients were prepared by adding 500 μL of stock solution to a 25 mL glass vial, then adding 500 μL of acetone, followed by the addition of 9 mL water with 0.025% Tween®) 20 to create a 0.005% (w/v) solution. The test solutions containing mixtures of Formula One and the individual active ingredients were prepared by adding 500 μL of the active ingredient stock solution to a 25 mL glass vial, followed by 500 μL of the Formula One stock solution, then by the addition of 9 mL water with 0.025% Tween®) 20 to create a test solution containing 0.04% (w/v) Formula One and 0.005% (w/v) of the active ingredient. Each test solution was serially diluted to create desired doses of test solutions (0.01% (w/v), 0.0025% (w/v), 0.000625% (w/v), 0.000156% (w/v), and 0.000039% (w/v)). In test solutions containing mixtures of Formula One and the active ingredients, the active ingredients were diluted as described above, but the Concentration of Formula One was held constant (0.04% (w/v)).
The test solutions that were tested against BSB were similar to those described above for WTPB. Fresh green beans were cut into segments approximately 1.5 inches long. Four bean segments were added to each test solution and soaked for approximately 15 minutes. After soaking, a single bean fragment was removed and placed into a single well of a 32-well rearing tray (Frontier Agricultural Sciences™), on top of a round filter paper disc. A reference treatment (solvent check) was treated with the diluent only. Each treatment was replicated four times and the test treatments were held at approximately 26° C. and ambient relative humidity (RH) prior to grading. Bean segments were allowed to air dry for ˜30 minutes. Three BSB nymphs were added to and contained in each well with a clear perforated adhesive lid. The total number of living BSB nymphs was recorded 3 days after application. Scoring was based off the total number of living nymphs out of all four replicates. Percent control was measured using Abbott's correction formula (W. S. Abbott, J. Econ. Entomol. 18 (1925), pp. 265-267) as follows:
where X=No. of live nymphs on solvent check and Y=No. of live nymphs on treated bean segments. In Table B5 the “Expected % Control” was calculated using the method described in Colby S. R., Weeds, 1967, 15, 20-22. Bioassay 6: Beet Armyworm (Spodoptera exigua, LAPHEG) (BAW), and Diamondback Moth (Plutella xylostella, PLUTMA) (DBM).

CCOC(=O)OC1=C(c2cc(C)ccc2C)C(=O)N[C@]12CC[C@@H](OC)CC2 [Spirotetramat]
Average % Control AI ([1]; AI alone 0.05 (10^-5) % w/v): 15% | pest or weed control at 7.8e-05 % strength ([2]; AI alone 0.000078 % w/v, read-out: Average % Control AI): 7%

CNC(=O)c1cc(C#N)cc(C)c1NC(=O)c1cc(Br)nn1-c1ncccc1Cl [Cyantraniliprole]
Average % Control AI [3]: 0%

CCOCn1c(-c2ccc(Cl)cc2)c(C#N)c(Br)c1C(F)(F)F [Chlorfenapyr]
pest or weed control at 0.005 % strength [2]: 57% | pest or weed control at 0.0025 % strength ([4]; AI alone 0.0025 % w/v): 8%

COc1cccc(C(=O)NN(C(=O)c2cc(C)cc(C)c2)C(C)(C)C)c1C [Methoxyfenozide]
Average % Control AI ([1]; AI alone 0.195 (10^-5) % w/v): 5%

CNC(=O)c1cc(Cl)cc(C)c1NC(=O)c1cc(Br)nn1-c1ncccc1Cl [Chlorantraniliprole]
pest or weed control at 0.005 % strength [2]: 7%

CC(COc1ccc(Oc2ccccc2)cc1)Oc1ccccn1 (stereo not shown) [Pyriproxyfen]
Average % Control AI [3]: 8% | pest or weed control at 0.00125 % strength ([2]; AI alone 0.00125 % w/v): 17%

CN/C(=N/CC1CCOC1)N[N+](=O)[O-] (stereo not shown) [Dinotefuran]
pest or weed control at 0.000156 % strength [4]: 17%

Reference: US20250338846A1, “COMPOSITIONS HAVING PESTICIDAL UTILITY AND PROCESSES RELATED THERETO” (CORTEVA AGRISCIENCE, LLC, priority 2022, published 2025)
